# Values of other authors, collected in patent US20070196528A1, “Cosmetic composition based on caper flower bud extract” (GATTEFOSSE S.A.S., priority 2004, published 2007).
# System: oedemas in rats
# Settings: Pharmazie 43 (1988); cited from earlier work
row,Molecule,Anti-inflammatory activity
1,CC(C)=CCC/C(C)=C/CC/C(C)=C/CC/C(C)=C/CC/C(C)=C\CC/C(C)=C\CC/C(C)=C\CC/C(C)=C\CC/C(C)=C\CC/C(C)=C\CC/C(C)=C\CC/C(C)=C\CC/C(C)=C\CO [Cappaprenol-13],providing this anti-inflammatory activity
2,CC(C)=CCC/C(C)=C/CC/C(C)=C/CC/C(C)=C/CC/C(C)=C/CC/C(C)=C/CC/C(C)=C/CC/C(C)=C/CC/C(C)=C/CC/C(C)=C/CC/C(C)=C/CC/C(C)=C/CC/C(C)=C/CC/C(C)=C/CO [Cappaprenol-14],providing this anti-inflammatory activity
3,Cappaprenol-12,providing this anti-inflammatory activity
